Literature values in article PMC4452912 (Viruses, 2015).

How the values were obtained:
DENV-2 = tested on: DENV-2; set-up: method as in ref 16 = [16]; details: DENV-2 ADE mouse model; cited from earlier work
[1] = mouse, in vivo; cited from earlier work
DENV, HCV, and HIV = tested on: DENV, HCV, and HIV; set-up: method as in ref 3 = [3]; details: cited from earlier work

SMILES	dose range promoting survival (DENV-2) [mg/kg]	thymus effect [1]	concentrations required for broad-spectrum antiviral activity in vitro (DENV, HCV, and HIV) [µM]
COCCCCCCCCCN1C[C@H](O)[C@@H](O)[C@H](O)[C@H]1CO [UV-4]	10 to 20		
CCCCN1C[C@H](O)[C@@H](O)[C@H](O)[C@H]1CO [NB-DNJ, N-butyl-deoxynojirimycin]		thymus weight loss	> 30
